# Earlier results in US20120258171A1, “COMPOSITION COMPRISING FESOTERODINE AND FIBER” (ratiopharm GmbH, priority 2009, published 2012).
# How the values were obtained:
# [1] = general statement on the active agent
# [2] = system: overactive bladder; conditions: both Phase III studies, versus placebo
structure (smiles),measurement,setting,value
"CC(C)C(=O)Oc1ccc(CO)cc1[C@H](CCN(C(C)C)C(C)C)c1ccccc1 [Fesoterodine, 2-[(1R)-3-(di-isopropylamine)-1-phenylpropyl]-4-(hydroxymethyl)phenyl-isobutyrate]",stability against hydrolysis,[1],not particularly stable against hydrolysis
same,"improvement of clinically relevant end points (urge incontinence events/24 h, frequency of micturition, mean micturition volume)",[2],statistically significant improvements over a placebo
